N#CCC(N)=O
solubility (mole fraction)
Settings	273.15 K	278.15 K	283.15 K	288.15 K	293.15 K	298.15 K	303.15 K	308.15 K	313.15 K	318.15 K
in 1,4-dioxane	–	–	–	0.0127	0.0155	0.0186	0.0226	0.0278	0.0342	0.0407
in DMF	0.254	0.262	0.271	0.283	0.295	0.309	0.325	0.343	0.36	0.382
in THF	0.00988	0.0112	0.0128	0.0145	0.0164	0.0187	0.0209	0.0236	0.0268	0.0301
in acetone	0.0248	0.0286	0.0335	0.039	0.0453	0.0527	0.0612	0.0712	0.0833	0.0956
in acetonitrile	0.0154	0.0187	0.0232	0.0272	0.0329	0.0389	0.0469	0.0553	0.0671	0.0795
in chloroform	0.000389	0.000465	0.000562	0.000678	0.000821	0.000985	0.00119	0.00143	0.00173	0.00208
in dichloromethane	0.000321	0.000388	0.000471	0.000559	0.000668	0.000792	0.000931	0.00112	–	–
in ethanol	0.00455	0.00558	0.00681	0.0087	0.0105	0.0129	0.0157	0.0188	0.0229	0.0277
in ethyl acetate	0.0043	0.00509	0.00602	0.00694	0.00829	0.00951	0.011	0.0128	0.0149	0.017
in methanol	0.0126	0.0156	0.0186	0.0227	0.0273	0.0332	0.04	0.0482	0.0558	0.0674
in methyl acetate	0.0115	0.0137	0.0163	0.0195	0.0228	0.0263	0.0307	0.0355	0.0408	0.0467
in n-butanol	0.00201	0.00246	0.00298	0.00377	0.00456	0.0055	0.00667	0.00797	0.00982	0.0119
in n-propanol	0.0022	0.00274	0.00355	0.00461	0.00591	0.00755	0.00935	0.0117	0.0147	0.0182
in water	–	0.0136	0.0179	0.0233	0.0313	0.0405	0.0519	0.0674	0.0887	0.114

Reference: BigSolDB 2.1
